What was measured:
[1] = molecular target: T1, C-X-C chemokine receptor type 2 (Homo sapiens, UniProt P25025); format: cell membranes, Membrane; details: cho-k1; note: in other assays of this panel Not Active means under 50% inhibition at 10 µM
T1 sequence (P25025 whole entry): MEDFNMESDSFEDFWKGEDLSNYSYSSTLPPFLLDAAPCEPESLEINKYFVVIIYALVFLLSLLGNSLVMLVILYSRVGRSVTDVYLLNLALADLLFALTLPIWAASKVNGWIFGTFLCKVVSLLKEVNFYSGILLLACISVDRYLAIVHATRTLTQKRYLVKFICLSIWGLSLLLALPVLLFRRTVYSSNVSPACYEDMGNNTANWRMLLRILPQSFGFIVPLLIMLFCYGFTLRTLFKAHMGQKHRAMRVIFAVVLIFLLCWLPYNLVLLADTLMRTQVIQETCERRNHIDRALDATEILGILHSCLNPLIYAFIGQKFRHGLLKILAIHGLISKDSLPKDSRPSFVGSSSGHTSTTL

[2] = molecular target: Mitogen-activated protein kinase 1 (Homo sapiens, UniProt P28482); test: DRUGMATRIX: Protein Serine/Threonine Kinase, ERK2 enzyme inhibition (substrate: Myelin Basic Protein); set-up: species or system Escherichia coli; details: Not Active = under 50% inhibition at 10 µM
Mitogen-activated protein kinase 1, sequence (P28482 whole entry): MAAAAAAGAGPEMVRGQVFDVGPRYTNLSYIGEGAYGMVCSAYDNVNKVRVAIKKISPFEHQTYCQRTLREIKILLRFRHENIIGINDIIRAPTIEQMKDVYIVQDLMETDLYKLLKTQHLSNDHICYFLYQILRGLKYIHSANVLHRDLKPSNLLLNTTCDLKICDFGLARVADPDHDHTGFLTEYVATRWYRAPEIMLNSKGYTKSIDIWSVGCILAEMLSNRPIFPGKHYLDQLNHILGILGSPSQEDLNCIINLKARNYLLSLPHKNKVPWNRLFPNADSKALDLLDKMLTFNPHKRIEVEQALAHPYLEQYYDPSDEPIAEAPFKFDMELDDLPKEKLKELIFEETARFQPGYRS

[3] = molecular target: Mitogen-activated protein kinase 14 (Homo sapiens, UniProt Q16539); set-up: species or system Escherichia coli;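 note: inhibition of p38alpha enzyme activity in a biochemical kinase assay, with myelin basic protein serving as substrate; in other assays of this panel Not Active means under 50% inhibition at 10 µM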
Mitogen-activated protein kinase 14, sequence (Q16539 whole entry): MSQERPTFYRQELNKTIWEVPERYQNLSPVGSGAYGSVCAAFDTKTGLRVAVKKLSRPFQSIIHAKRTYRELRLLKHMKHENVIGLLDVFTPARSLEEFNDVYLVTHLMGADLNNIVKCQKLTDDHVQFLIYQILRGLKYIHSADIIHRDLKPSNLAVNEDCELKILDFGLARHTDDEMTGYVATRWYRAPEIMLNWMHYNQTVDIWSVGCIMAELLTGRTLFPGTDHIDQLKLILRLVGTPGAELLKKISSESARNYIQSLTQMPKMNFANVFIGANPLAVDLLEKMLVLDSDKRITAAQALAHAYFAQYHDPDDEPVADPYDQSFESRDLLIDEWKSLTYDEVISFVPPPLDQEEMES

Progesterone receptor = molecular target: T2, Progesterone receptor (Bos taurus, UniProt Q690N0); test: DRUGMATRIX: Progesterone radioligand binding (ligand: [3H] R-5020); format: tissue-based, Uterus; details: Not Active = under 50% inhibition at 10 µM
T2 sequence (Q690N0 whole entry): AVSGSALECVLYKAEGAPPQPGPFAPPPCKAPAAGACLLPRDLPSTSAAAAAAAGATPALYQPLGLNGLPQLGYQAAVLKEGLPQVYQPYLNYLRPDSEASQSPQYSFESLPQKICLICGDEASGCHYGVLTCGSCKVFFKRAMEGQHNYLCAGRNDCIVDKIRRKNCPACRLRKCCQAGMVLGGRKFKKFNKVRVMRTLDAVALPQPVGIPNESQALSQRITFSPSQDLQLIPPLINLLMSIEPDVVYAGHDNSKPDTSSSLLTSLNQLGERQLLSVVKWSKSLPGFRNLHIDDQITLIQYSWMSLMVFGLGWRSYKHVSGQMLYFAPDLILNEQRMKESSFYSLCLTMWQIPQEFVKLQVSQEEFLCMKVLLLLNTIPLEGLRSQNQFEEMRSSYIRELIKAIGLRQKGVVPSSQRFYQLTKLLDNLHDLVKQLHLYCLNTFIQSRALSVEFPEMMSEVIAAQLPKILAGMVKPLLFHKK

[4] = DRUGMATRIX: Platelet-Derived Growth Factor (PDGF) radioligand binding (ligand: [125I] PDGF); format: cell-based; details: nih3t3; Not Active = under 50% inhibition at 10 µM
[5] = DRUGMATRIX: Sodium/nucleoside co-transporter radioligand binding (ligand: nitrobenzylthioinosine); format: cell membranes, Cavia porcellus, Dunkin-Hartley, Cerebral cortex, Membrane; details: Not Active = under 50% inhibition at 10 µM
[6] = molecular target: T3, Alpha-2C adrenergic receptor (Homo sapiens, UniProt P18825); test: DRUGMATRIX: Adrenergic Alpha-2C radioligand binding (ligand: [3H] MK-912); format: cell membranes, Sf9, Membrane; details: sf9
T3 sequence (P18825 whole entry): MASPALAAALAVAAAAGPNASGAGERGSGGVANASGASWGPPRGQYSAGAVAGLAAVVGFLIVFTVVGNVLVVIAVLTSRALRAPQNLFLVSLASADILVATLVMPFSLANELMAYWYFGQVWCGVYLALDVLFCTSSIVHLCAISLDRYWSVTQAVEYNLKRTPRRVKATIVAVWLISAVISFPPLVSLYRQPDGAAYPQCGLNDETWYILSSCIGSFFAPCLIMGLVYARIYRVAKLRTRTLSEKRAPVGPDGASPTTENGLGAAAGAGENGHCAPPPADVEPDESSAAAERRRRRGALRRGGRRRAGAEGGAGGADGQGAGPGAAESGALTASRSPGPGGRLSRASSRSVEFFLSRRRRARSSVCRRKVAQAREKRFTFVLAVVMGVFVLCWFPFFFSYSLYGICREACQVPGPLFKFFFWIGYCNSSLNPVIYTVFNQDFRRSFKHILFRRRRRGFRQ

[7] = molecular target: C-C chemokine receptor type 2 (Homo sapiens, UniProt P41597); format: cell membranes, CHO-K1, Membrane; details: cho-k1; note: in other assays of this panel Not Active means under 50% inhibition at 10 µM
C-C chemokine receptor type 2, sequence (P41597 whole entry): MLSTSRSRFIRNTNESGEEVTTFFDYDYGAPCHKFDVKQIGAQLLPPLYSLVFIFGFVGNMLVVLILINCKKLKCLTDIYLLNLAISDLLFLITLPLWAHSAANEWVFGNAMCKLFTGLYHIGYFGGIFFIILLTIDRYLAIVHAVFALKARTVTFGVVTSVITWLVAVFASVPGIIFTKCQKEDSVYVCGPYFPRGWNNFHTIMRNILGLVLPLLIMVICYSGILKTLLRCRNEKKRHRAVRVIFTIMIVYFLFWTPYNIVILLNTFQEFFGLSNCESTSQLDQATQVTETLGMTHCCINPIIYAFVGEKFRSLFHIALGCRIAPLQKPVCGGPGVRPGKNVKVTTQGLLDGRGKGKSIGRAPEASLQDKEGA

[8] = molecular target: C-C chemokine receptor type 5 (Homo sapiens, UniProt P51681); format: cell membranes, Membrane; details: hek293; note: in other assays of this panel Not Active means under 50% inhibition at 10 µM
C-C chemokine receptor type 5, sequence (P51681 whole entry): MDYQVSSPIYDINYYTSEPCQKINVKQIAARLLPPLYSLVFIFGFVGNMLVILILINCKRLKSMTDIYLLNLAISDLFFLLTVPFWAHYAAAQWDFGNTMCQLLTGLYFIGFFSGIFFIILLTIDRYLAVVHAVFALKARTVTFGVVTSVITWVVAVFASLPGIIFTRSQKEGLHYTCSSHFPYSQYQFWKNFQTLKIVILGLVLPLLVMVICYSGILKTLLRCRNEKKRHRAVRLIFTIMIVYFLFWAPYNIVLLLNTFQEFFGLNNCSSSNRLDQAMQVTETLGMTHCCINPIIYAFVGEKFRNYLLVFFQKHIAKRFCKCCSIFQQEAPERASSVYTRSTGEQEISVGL

Thromboxane-A synthase = molecular target: T4, Thromboxane-A synthase (Homo sapiens, UniProt P24557); test: biochemical; format: tissue-based, Platelet; details: platelet
T4 sequence (P24557 whole entry): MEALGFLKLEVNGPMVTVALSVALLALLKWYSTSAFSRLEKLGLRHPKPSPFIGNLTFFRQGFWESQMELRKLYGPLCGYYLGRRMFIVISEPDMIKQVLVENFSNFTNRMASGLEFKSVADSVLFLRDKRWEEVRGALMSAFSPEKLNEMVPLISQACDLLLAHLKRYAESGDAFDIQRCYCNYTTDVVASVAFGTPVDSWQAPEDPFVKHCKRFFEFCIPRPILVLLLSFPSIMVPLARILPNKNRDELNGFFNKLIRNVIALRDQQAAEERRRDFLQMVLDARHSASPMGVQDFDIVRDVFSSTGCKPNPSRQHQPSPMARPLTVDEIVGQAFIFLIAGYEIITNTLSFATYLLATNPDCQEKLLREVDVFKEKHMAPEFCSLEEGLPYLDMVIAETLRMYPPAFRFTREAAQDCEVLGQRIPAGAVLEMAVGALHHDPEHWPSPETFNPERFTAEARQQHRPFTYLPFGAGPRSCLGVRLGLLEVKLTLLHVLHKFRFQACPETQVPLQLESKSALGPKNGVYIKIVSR

[9] = molecular target: Mitogen-activated protein kinase 3 (Homo sapiens, UniProt P27361); test: DRUGMATRIX: Protein Serine/Threonine Kinase, ERK1 enzyme inhibition (substrate: Myelin Basic Protein); set-up: species or system Escherichia coli; details: Not Active = under 50% inhibition at 10 µM
Mitogen-activated protein kinase 3, sequence (P27361 whole entry): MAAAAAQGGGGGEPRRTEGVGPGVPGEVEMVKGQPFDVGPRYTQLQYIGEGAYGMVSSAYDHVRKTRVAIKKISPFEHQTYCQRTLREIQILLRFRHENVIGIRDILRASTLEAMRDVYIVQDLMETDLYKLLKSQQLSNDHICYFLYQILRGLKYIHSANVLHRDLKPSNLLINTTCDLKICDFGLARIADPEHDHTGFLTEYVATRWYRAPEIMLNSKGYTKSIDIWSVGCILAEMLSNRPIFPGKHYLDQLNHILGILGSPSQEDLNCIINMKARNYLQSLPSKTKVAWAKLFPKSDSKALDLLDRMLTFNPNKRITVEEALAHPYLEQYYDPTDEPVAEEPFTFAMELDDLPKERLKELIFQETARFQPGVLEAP

[10] = molecular target: Sodium-dependent dopamine transporter (Homo sapiens, UniProt Q01959); test: DRUGMATRIX: Dopamine Transporter radioligand binding (ligand: [125I] RTI-55); format: cell membranes, CHO-K1, Membrane; details: Not Active = under 50% inhibition at 10 µM; for Ki: read-out: Ki
Sodium-dependent dopamine transporter, sequence (Q01959 whole entry): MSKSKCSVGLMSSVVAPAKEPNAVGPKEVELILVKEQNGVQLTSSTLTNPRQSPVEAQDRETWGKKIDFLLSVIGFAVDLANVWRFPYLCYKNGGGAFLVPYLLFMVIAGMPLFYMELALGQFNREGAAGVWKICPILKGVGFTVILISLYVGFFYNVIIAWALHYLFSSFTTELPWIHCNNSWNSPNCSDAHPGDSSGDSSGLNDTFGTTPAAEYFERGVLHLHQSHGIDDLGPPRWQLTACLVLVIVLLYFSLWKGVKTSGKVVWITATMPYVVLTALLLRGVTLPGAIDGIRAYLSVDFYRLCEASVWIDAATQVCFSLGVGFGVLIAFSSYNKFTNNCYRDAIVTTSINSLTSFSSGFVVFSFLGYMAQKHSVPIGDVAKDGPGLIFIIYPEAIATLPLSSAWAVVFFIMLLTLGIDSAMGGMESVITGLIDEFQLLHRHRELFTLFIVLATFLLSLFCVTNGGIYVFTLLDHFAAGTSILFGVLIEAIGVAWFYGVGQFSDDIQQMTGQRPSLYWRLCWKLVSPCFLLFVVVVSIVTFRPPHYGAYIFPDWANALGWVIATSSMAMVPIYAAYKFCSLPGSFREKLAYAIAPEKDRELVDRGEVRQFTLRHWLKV

[11] = molecular target: Receptor tyrosine-protein kinase erbB-2 (Homo sapiens, UniProt P04626); test: biochemical; format: cell-based, Insect cells
Receptor tyrosine-protein kinase erbB-2, sequence (P04626 whole entry): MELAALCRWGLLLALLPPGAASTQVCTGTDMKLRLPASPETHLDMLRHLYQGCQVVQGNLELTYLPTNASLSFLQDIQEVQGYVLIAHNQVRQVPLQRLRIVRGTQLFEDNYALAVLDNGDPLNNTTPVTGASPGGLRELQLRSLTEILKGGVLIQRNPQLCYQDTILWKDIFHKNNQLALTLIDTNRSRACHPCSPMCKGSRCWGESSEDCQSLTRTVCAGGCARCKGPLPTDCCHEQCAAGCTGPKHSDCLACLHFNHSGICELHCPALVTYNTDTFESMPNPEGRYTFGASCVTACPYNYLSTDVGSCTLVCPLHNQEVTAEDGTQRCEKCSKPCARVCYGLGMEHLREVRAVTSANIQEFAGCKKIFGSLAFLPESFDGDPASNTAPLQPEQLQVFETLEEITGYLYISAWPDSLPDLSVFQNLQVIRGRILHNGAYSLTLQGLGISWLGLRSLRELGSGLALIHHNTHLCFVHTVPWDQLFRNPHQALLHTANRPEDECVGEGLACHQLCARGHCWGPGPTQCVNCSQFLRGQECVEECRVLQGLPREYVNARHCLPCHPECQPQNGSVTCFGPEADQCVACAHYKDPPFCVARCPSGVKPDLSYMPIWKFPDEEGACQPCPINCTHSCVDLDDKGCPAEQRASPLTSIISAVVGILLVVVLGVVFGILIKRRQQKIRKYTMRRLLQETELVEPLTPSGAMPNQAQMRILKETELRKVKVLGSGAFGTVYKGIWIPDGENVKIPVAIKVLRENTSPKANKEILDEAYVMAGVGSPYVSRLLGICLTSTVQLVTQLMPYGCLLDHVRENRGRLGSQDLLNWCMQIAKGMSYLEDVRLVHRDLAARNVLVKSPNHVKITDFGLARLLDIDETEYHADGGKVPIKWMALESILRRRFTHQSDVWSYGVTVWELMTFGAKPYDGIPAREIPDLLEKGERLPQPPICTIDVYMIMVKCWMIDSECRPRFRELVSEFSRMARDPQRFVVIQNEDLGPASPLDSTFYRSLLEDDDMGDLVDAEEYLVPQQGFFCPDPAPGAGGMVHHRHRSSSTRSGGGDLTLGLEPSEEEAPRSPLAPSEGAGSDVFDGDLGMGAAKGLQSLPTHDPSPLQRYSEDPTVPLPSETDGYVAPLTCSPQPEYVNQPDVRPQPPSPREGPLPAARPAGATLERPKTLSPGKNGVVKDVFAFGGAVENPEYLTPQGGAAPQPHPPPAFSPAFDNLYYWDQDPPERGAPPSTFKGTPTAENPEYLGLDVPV

Melanocortin receptor 3 = Melanocortin receptor 3 (Homo sapiens, UniProt P41968); format: cell membranes, Membrane; details: hek293; note: in other assays of this panel Not Active means under 50% inhibition at 10 µM
Melanocortin receptor 3, sequence (P41968 whole entry): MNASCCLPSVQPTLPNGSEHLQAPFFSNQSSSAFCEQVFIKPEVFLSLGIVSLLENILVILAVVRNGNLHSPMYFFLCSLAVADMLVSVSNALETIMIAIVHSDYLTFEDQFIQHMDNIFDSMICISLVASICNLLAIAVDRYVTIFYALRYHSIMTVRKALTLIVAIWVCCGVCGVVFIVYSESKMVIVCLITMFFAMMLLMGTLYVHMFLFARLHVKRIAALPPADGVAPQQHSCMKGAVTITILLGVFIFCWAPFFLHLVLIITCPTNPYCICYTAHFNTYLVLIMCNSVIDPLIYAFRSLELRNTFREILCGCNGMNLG

Compound	IC50 [1]	IC50 [2]	IC50 [3]	IC50 [4]	Ki [4]	IC50 [5]	Ki [5]	IC50 [6]	IC50 [7]	IC50 [8]	IC50 (Thromboxane-A synthase)	IC50 [9]	IC50 ([10]; cho-k1)	IC50 ([11]; insect cells)	IC50 (Melanocortin receptor 3)	IC50 (Progesterone receptor)	also measured
C[C@]12Cc3c[nH]nc3C[C@@H]1CC[C@@H]1[C@@H]2CC[C@@]2(C)[C@H]1CC[C@]2(C)O [STANOZOLOL]	Not Active	Not Active	Not Active	Not Active	Not Active	Not Active	Not Active	Not Active	Not Active	Not Active	Not Active	Not Active	Not Active	Not Active	Not Active		IC50 (Progesterone receptor; read-out: IC50): 3710 nM; Ki (Progesterone receptor; read-out: Ki): 483 nM
CCOC(=O)[C@H](CCc1ccccc1)N[C@@H](C)C(=O)N1[C@H](C(=O)O)C[C@@H]2CCC[C@@H]21	Not Active	Not Active	Not Active	Not Active	Not Active	Not Active	Not Active	Not Active	Not Active	Not Active	Not Active	Not Active	Not Active	Not Active	Not Active	Not Active	
CN[C@@H]1[C@@H](O)[C@@H](O[C@@H]2[C@@H](O)[C@H](O[C@H]3OC(CN)=CC[C@H]3N)[C@@H](N)C[C@H]2N)OC[C@]1(C)O [SISOMICIN]	Not Active	Not Active	Not Active	Not Active	Not Active	Not Active	Not Active	Not Active	Not Active	Not Active	Not Active	Not Active	Not Active	Not Active	Not Active	Not Active	
Clc1ccc(C(c2ccccc2Cl)C(Cl)Cl)cc1 (configuration not stated) [MITOTANE]	Not Active	Not Active	Not Active	Not Active	Not Active	Not Active	Not Active	Not Active	Not Active	Not Active	Not Active	Not Active		Not Active	Not Active	Not Active	IC50 ([10]; read-out: IC50): 1000 nM; Ki [10]: 795 nM
CN(C)[C@@H]1C(O)=C(C(N)=O)C(=O)[C@@]2(O)C(O)=C3C(=O)c4c(O)cccc4[C@@](C)(O)[C@H]3C[C@@H]12 [TETRACYCLINE]	Not Active	Not Active	Not Active	Not Active	Not Active	Not Active	Not Active	Not Active	Not Active	Not Active	Not Active	Not Active	Not Active	Not Active	Not Active	Not Active	
CC(C)(C)NCC(O)c1ccc(O)c(CO)c1 (configuration not stated) [ALBUTEROL]	Not Active	Not Active	Not Active	Not Active	Not Active	Not Active	Not Active	Not Active	Not Active	Not Active	Not Active	Not Active	Not Active	Not Active	Not Active	Not Active	
O=C1c2c(O)ccc(O)c2C(=O)c2c(NCCNCCO)ccc(NCCNCCO)c21 [MITOXANTRONE]	Not Active	Not Active	Not Active	Not Active	Not Active	Not Active	Not Active	Not Active	Not Active	Not Active	Not Active	Not Active	Not Active		Not Active	Not Active	IC50 ([11]; read-out: IC50): 2040 nM
CC(CCc1ccccc1)NCC(O)c1ccc(O)c(C(N)=O)c1 (configuration not stated) [LABETALOL]	Not Active	Not Active	Not Active	Not Active	Not Active	Not Active	Not Active	Not Active	Not Active	Not Active	Not Active	Not Active		Not Active	Not Active	Not Active	IC50 ([10]; read-out: IC50): 1610 nM; Ki [10]: 1280 nM
CN(N=O)C(=O)N[C@@H](C=O)[C@@H](O)[C@H](O)[C@H](O)CO [STREPTOZOCIN]	Not Active	Not Active	Not Active	Not Active	Not Active	Not Active	Not Active	Not Active	Not Active	Not Active	Not Active	Not Active	Not Active	Not Active	Not Active	Not Active	

— ChEMBL document CHEMBL1909046, “DrugMatrix in vitro pharmacology data”
